Laboratory results from BigSolDB 2.1.

Nc1cccc2c(N)cccc12
solubility (mole fraction)
Settings | 273.15 K | 278.15 K | 283.15 K | 288.15 K | 293.15 K | 298.15 K | 303.15 K | 308.15 K | 313.15 K
in acetonitrile | 0.00186 | 0.00238 | 0.00305 | 0.00382 | 0.00477 | 0.00577 | 0.00695 | 0.00834 | 0.00983
in ethyl acetate | 0.00404 | 0.00487 | 0.00569 | 0.00662 | 0.00759 | 0.00869 | 0.00992 | 0.0113 | 0.0128
in isopropanol | 0.000471 | 0.000564 | 0.000684 | 0.000807 | 0.000947 | 0.0011 | 0.00126 | 0.00144 | 0.00163
in methanol | 0.00112 | 0.00132 | 0.00154 | 0.00181 | 0.00209 | 0.0024 | 0.00278 | 0.0032 | 0.00369
in n-propanol | 0.00064 | 0.000762 | 0.000895 | 0.00105 | 0.00122 | 0.00142 | 0.00165 | 0.00192 | 0.00224
in toluene | 0.000262 | 0.000345 | 0.000445 | 0.00056 | 0.000689 | 0.00084 | 0.00102 | 0.0012 | 0.0014

Nc1cccc2cccc(N)c12
solubility (mole fraction)
Settings | 273.15 K | 278.15 K | 283.15 K | 288.15 K | 293.15 K | 298.15 K | 303.15 K | 308.15 K | 313.15 K
in acetonitrile | 0.0518 | 0.065 | 0.0798 | 0.0966 | 0.116 | 0.139 | 0.166 | 0.197 | 0.231
in ethyl acetate | 0.0765 | 0.091 | 0.107 | 0.127 | 0.152 | 0.179 | 0.212 | 0.252 | 0.295
in isopropanol | 0.0221 | 0.0277 | 0.0338 | 0.0407 | 0.0491 | 0.0588 | 0.0688 | 0.0807 | 0.0936
in methanol | 0.018 | 0.0219 | 0.0267 | 0.0327 | 0.0391 | 0.0467 | 0.0551 | 0.0647 | 0.0754
in n-propanol | 0.0385 | 0.0484 | 0.0594 | 0.0718 | 0.0868 | 0.103 | 0.121 | 0.142 | 0.166
in toluene | 0.0423 | 0.0512 | 0.0654 | 0.0803 | 0.0966 | 0.117 | 0.138 | 0.163 | 0.189
